Experimental data: patent EP0908457B1, “3-(1,2-benzisothiazol- and isoxazol-5-Y1)-2,4(1H,3H)-pyrimidinedione or thione and 3-(1,2-benzisothiazol- and isoxazol-5-y1)-4(3H)-pyrimidinone or thione herbicidal agents” (BASF AKTIENGESELLSCHAFT, priority 1997, dated 1999)

How the values were obtained:
[1] = system: Echinochloa oryzoides (Ard.) Fritsch.; assay: Preemergence weed control under flooded paddy conditions, ECHORC (Watergrass (Calif.)); assay type: in vivo; conditions: flooded paddy; for ECHORC herbicidal effect rating: preemergence; for ECHORC herbicidal effect rating / herbicidal effect rating, ECHORC: rated three to four weeks after treatment; for ECHORC / herbicidal effect rating, ECHORC: preemergence weeds; for ECHORC: herbicidal effect rating 0-9, three to four weeks after treatment; as to herbicidal effect rating, ECHORC: meaning of each grade not given here
[2] = system: Monochoria vaginalis, Presl.; assay: Preemergence weed control under flooded paddy conditions, MOOVA (Monochoria); assay type: in vivo; conditions: flooded paddy; for MOOVA herbicidal effect rating: preemergence; for MOOVA herbicidal effect rating / herbicidal effect rating, MOOVA: rated three to four weeks after treatment; for MOOVA / herbicidal effect rating, MOOVA: preemergence weeds; for MOOVA: herbicidal effect rating 0-9, three to four weeks after treatment; as to herbicidal effect rating, MOOVA: meaning of each grade not given here
Sagittaria pygmaea, L. = assay: Preemergence weed control under flooded paddy conditions, SAGPY (Arrowhead (Pygmaea)); assay type: in vivo; conditions: flooded paddy; for SAGPY herbicidal effect rating: preemergence; for SAGPY herbicidal effect rating / herbicidal effect rating, SAGPY: rated three to four weeks after treatment; for SAGPY / herbicidal effect rating, SAGPY: preemergence weeds; for SAGPY: herbicidal effect rating 0-9, three to four weeks after treatment; as to herbicidal effect rating, SAGPY: meaning of each grade not given here
[3] = system: Cyperus serotinus, Rottb.; assay: Preemergence weed control under flooded paddy conditions, CYPSE (Flatsedge); assay type: in vivo; conditions: for CYPSE herbicidal effect rating: preemergence; for CYPSE herbicidal effect rating / herbicidal effect rating, CYPSE: rated three to four weeks after treatment; for CYPSE / herbicidal effect rating, CYPSE: preemergence weeds; for CYPSE: herbicidal effect rating 0-9, three to four weeks after treatment; as to herbicidal effect rating, CYPSE: meaning of each grade not given here
[4] = system: Oryza sativa, (L.) Tebonnet; assay: Rice tolerance to post-transplant applications under flooded paddy conditions (Example 187), ORYSAT (Rice, Tebonnet); conditions: for ORYSAT herbicidal effect rating / herbicidal effect rating, ORYSAT (rice tolerance): rated three to four weeks after treatment; for ORYSAT: herbicidal effect rating 0-9, three to four weeks after treatment
Cyperus iria = assay: Preemergence weed control under flooded paddy conditions, CYPIR (Rice Flatsedge); assay type: in vivo; conditions: flooded paddy; for CYPIR herbicidal effect rating: preemergence; for CYPIR herbicidal effect rating / herbicidal effect rating, CYPIR: rated three to four weeks after treatment; for CYPIR / herbicidal effect rating, CYPIR: preemergence weeds; for CYPIR: herbicidal effect rating 0-9, three to four weeks after treatment; as to herbicidal effect rating, CYPIR: meaning of each grade not given here

SMILES: Cc1ccc(OCC(=O)NS(=O)(=O)c2sc3ccc(Cl)cc3c2C)c(-c2nsc3ccc(-n4c(=O)cc(C(F)(F)F)n(C)c4=O)cc23)c1 [Example 290, Acetamide, N-[(5-chloro-3-methylbenzo[b]thien-2-yl)sulfonyl]-2-{{2-{5-[3,6-dihydro-3-methyl-2,6-dioxo-4-(trifluoromethyl)-1(2H)-pyrimidinyl]-1,2-benzisothiazol-3-yl}-p-tolyl}oxy}-]
- ECHORC herbicidal effect rating ([1]; Rate 0.0320 kg/ha): 0.0
- ECHORC herbicidal effect rating ([1]; Rate 0.0620 kg/ha): 0.0
- ECHORC herbicidal effect rating ([1]; Rate 0.1250 kg/ha): 3.0
- ECHORC herbicidal effect rating ([1]; Rate 0.2500 kg/ha): 7.0
- MOOVA herbicidal effect rating ([2]; Rate 0.0320 kg/ha): 0.0
- MOOVA herbicidal effect rating ([2]; Rate 0.0620 kg/ha): 7.0
- MOOVA herbicidal effect rating ([2]; Rate 0.1250 kg/ha): 7.0
- MOOVA herbicidal effect rating ([2]; Rate 0.2500 kg/ha): 7.0
- SAGPY herbicidal effect rating (Sagittaria pygmaea, L.; Rate 0.0320 kg/ha): 0.0
- SAGPY herbicidal effect rating (Sagittaria pygmaea, L.; Rate 0.0620 kg/ha): 0.0
- SAGPY herbicidal effect rating (Sagittaria pygmaea, L.; Rate 0.1250 kg/ha): 0.0
- SAGPY herbicidal effect rating (Sagittaria pygmaea, L.; Rate 0.2500 kg/ha): 0.0
- CYPSE herbicidal effect rating ([3]; Rate 0.0320 kg/ha): 0.0
- CYPSE herbicidal effect rating ([3]; Rate 0.0620 kg/ha): 0.0
- CYPSE herbicidal effect rating ([3]; Rate 0.1250 kg/ha): 0.0
- CYPSE herbicidal effect rating ([3]; Rate 0.2500 kg/ha): 0.0
- ORYSAT herbicidal effect rating ([4]; Rate 0.0320 kg/ha): 0.0
- ORYSAT herbicidal effect rating ([4]; Rate 0.0620 kg/ha): 0.0
- ORYSAT herbicidal effect rating ([4]; Rate 0.1250 kg/ha): 0.0
- ORYSAT herbicidal effect rating ([4]; Rate 0.2500 kg/ha): 0.0
- CYPIR herbicidal effect rating (Cyperus iria; Rate 0.0320 kg/ha): 6.0
- CYPIR herbicidal effect rating (Cyperus iria; Rate 0.0620 kg/ha): 6.0
- CYPIR herbicidal effect rating (Cyperus iria; Rate 0.1250 kg/ha): 6.0
- CYPIR herbicidal effect rating (Cyperus iria; Rate 0.2500 kg/ha): 6.0

SMILES: Cn1c(C(F)(F)F)cc(=O)n(-c2ccc3snc(C(Br)S(=O)(=O)c4ccccc4)c3c2)c1=O (stereo not drawn) [Example 407, 2,4(1H,3H)-Pyrimidinedione, 3-{3-[bromo(phenylsulfonyl)methyl]-1,2-benzisothiazol-5-yl}-1-methyl-6-(trifluoromethyl)-]
- ECHORC ([1]; 0.0320 kg/ha): 0.0
- ECHORC ([1]; 0.0620 kg/ha): 3.0
- ECHORC ([1]; 0.1250 kg/ha): 7.0
- ECHORC ([1]; 0.2500 kg/ha): 7.0
- MOOVA ([2]; 0.0320 kg/ha): 6.0
- MOOVA ([2]; 0.0620 kg/ha): 7.0
- MOOVA ([2]; 0.1250 kg/ha): 9.0
- MOOVA ([2]; 0.2500 kg/ha): 9.0
- SAGPY (Sagittaria pygmaea, L.; 0.0320 kg/ha): 0.0
- SAGPY (Sagittaria pygmaea, L.; 0.0620 kg/ha): 2.0
- SAGPY (Sagittaria pygmaea, L.; 0.1250 kg/ha): 6.0
- SAGPY (Sagittaria pygmaea, L.; 0.2500 kg/ha): 7.0
- CYPSE ([3]; 0.0320 kg/ha): 0.0
- CYPSE ([3]; 0.0620 kg/ha): 0.0
- CYPSE ([3]; 0.1250 kg/ha): 5.0
- CYPSE ([3]; 0.2500 kg/ha): 7.0
- ORYSAT ([4]; 0.0320 kg/ha): 0.0
- ORYSAT ([4]; 0.0620 kg/ha): 2.0
- ORYSAT ([4]; 0.1250 kg/ha): 3.0
- ORYSAT ([4]; 0.2500 kg/ha): 5.0
- CYPIR (Cyperus iria; 0.0320 kg/ha): 3.0
- CYPIR (Cyperus iria; 0.0620 kg/ha): 4.0
- CYPIR (Cyperus iria; 0.1250 kg/ha): 9.0
- CYPIR (Cyperus iria; 0.2500 kg/ha): 9.0

SMILES: C=CC(C)OC(=O)COc1ccc(C)cc1-c1nsc2ccc(-n3c(=O)cc(C(F)(F)F)n(C)c3=O)cc12 (stereo not drawn) [Example 186, 1-Methylallyl {{2-{5-[3,6-dihydro-3-methyl-2,6-dioxo-4-(trifluoromethyl)-1(2H)-pyrimidinyl]-1,2-benzisothiazol-3-yl}-p-tolyl}oxy}acetate]
- herbicidal effect rating, ECHORC ([1]; 0.0315 kg/ha): 9.0
- herbicidal effect rating, ECHORC ([1]; 0.0630 kg/ha): 9.0
- herbicidal effect rating, MOOVA ([2]; 0.0315 kg/ha): 9.0
- herbicidal effect rating, MOOVA ([2]; 0.0630 kg/ha): 9.0
- herbicidal effect rating, SAGPY (Sagittaria pygmaea, L.; 0.0315 kg/ha): 9.0
- herbicidal effect rating, SAGPY (Sagittaria pygmaea, L.; 0.0630 kg/ha): 9.0
- herbicidal effect rating, CYPSE ([3]; 0.0315 kg/ha): 9.0
- herbicidal effect rating, CYPSE ([3]; 0.0630 kg/ha): 9.0
- herbicidal effect rating, ORYSAT (rice tolerance) ([4]; 0.0315 kg/ha): 9.0
- herbicidal effect rating, ORYSAT (rice tolerance) ([4]; 0.0630 kg/ha): 9.0
- herbicidal effect rating, CYPIR (Cyperus iria; 0.0315 kg/ha): 9.0
- herbicidal effect rating, CYPIR (Cyperus iria; 0.0630 kg/ha): 9.0
